Reference: ChEMBL document CHEMBL3608269, “Triazole-Linked Glycolipids Enhance the Susceptibility of MRSA to β-Lactam Antibiotics” (ACS Med Chem Lett, 2015)
Activity calls are given as the source filed them. The calls are words filed in the database; no cut-off is given here.

Experiments:
[1] = test system: Staphylococcus aureus; assay: Potentiation of penicillin-mediated antibacterial activity against methicillin-resistant Staphylococcus aureus ATCC 43300 assessed as decrease in penicillin MIC at 32 ug/ml by checkerboard method relative to control; type: functional
[2] = test system: Staphylococcus aureus; assay: Potentiation of cephazolin-mediated antibacterial activity against methicillin-resistant Staphylococcus aureus ATCC 43300 assessed as decrease in cephazolin MIC at 32 ug/ml by checkerboard method relative to control; type: functional
[3] = test system: Staphylococcus aureus; assay: Potentiation of cephalexin-mediated antibacterial activity against methicillin-resistant Staphylococcus aureus ATCC 43300 assessed as decrease in cephalexin MIC at 32 ug/ml by checkerboard method relative to control; type: functional
[4] = test system: Staphylococcus aureus; assay: Potentiation of cefoxitin-mediated antibacterial activity against methicillin-resistant Staphylococcus aureus ATCC 43300 assessed as decrease in cefoxitin MIC at 32 ug/ml by checkerboard method relative to control; type: functional
[5] = test system: Staphylococcus aureus; assay: Potentiation of cefmetazole-mediated antibacterial activity against methicillin-resistant Staphylococcus aureus ATCC 43300 assessed as decrease in cefmetazole MIC at 32 ug/ml by checkerboard method relative to control; type: functional
[6] = test system: Staphylococcus aureus; assay: Potentiation of cefuroxime mediated antibacterial activity against methicillin-resistant Staphylococcus aureus ATCC 43300 assessed as decrease in cefuroxime MIC at 32 ug/ml by checkerboard method relative to control; type: functional
[7] = test system: Staphylococcus aureus; assay: Potentiation of cefoperazone mediated antibacterial activity against methicillin-resistant Staphylococcus aureus ATCC 43300 assessed as decrease in cefoperazone MIC at 32 ug/ml by checkerboard method relative to control; type: functional
[8] = test system: Staphylococcus aureus; assay: Potentiation of cefepime mediated antibacterial activity against methicillin-resistant Staphylococcus aureus ATCC 43300 assessed as decrease in cefepime MIC at 32 ug/ml by checkerboard method relative to control; type: functional
[9] = test system: Staphylococcus aureus; assay: Downregulation of mecA mRNA expression in methicillin-resistant Staphylococcus aureus ATCC 43300 at 32 ug/ml after 4 hrs by RT-PCR analysis in presence of oxacillin; type: functional, organism-based
[10] = test system: Staphylococcus aureus; assay: Cellular uptake in methicillin-resistant Staphylococcus aureus ATCC 43300 by HPLC analysis in presence of oxacillin; type: ADME, organism-based; conditions: in vivo
[11] = test system: Staphylococcus aureus; assay: Potentiation of oxacillin-mediated antibacterial activity against methicillin-resistant Staphylococcus aureus R15 clinical isolate at 32 ug/ml after 20 to 24 hrs by CLSI method; type: functional
[12] = test system: Staphylococcus aureus; assay: Potentiation of oxacillin-mediated antibacterial activity against methicillin-resistant Staphylococcus aureus R16 clinical isolate at 32 ug/ml after 20 to 24 hrs by CLSI method; type: functional
[13] = test system: Staphylococcus aureus; assay: Potentiation of oxacillin-mediated antibacterial activity against methicillin-resistant Staphylococcus aureus R302 clinical isolate at 32 ug/ml after 20 to 24 hrs by CLSI method; type: functional
[14] = test system: Staphylococcus aureus; assay: Potentiation of oxacillin-mediated antibacterial activity against methicillin-resistant Staphylococcus aureus R304 clinical isolate at 32 ug/ml after 20 to 24 hrs by CLSI method; type: functional
[15] = test system: Staphylococcus aureus; assay: Potentiation of oxacillin-mediated antibacterial activity against methicillin-resistant Staphylococcus aureus R314 clinical isolate at 32 ug/ml after 20 to 24 hrs by CLSI method; type: functional
[16] = test system: Staphylococcus aureus; assay: Potentiation of oxacillin-mediated antibacterial activity against methicillin-resistant Staphylococcus aureus R49 clinical isolate assessed as decrease in oxacillin MIC at 16 ug/ml after 20 to 24 hrs by CLSI method relative to control; type: functional
[17] = test system: Staphylococcus aureus; assay: Potentiation of oxacillin-mediated antibacterial activity against methicillin-resistant Staphylococcus aureus R50 clinical isolate assessed as decrease in oxacillin MIC at 16 ug/ml after 20 to 24 hrs by CLSI method relative to control; type: functional
[18] = test system: Staphylococcus aureus; assay: Potentiation of oxacillin-mediated antibacterial activity against methicillin-resistant Staphylococcus aureus R53 clinical isolate assessed as decrease in oxacillin MIC at 16 ug/ml after 20 to 24 hrs by CLSI method relative to control; type: functional
[19] = test system: Staphylococcus aureus; assay: Potentiation of oxacillin-mediated antibacterial activity against methicillin-resistant Staphylococcus aureus R304 clinical isolate assessed as decrease in oxacillin MIC at 32 ug/ml after 20 to 24 hrs by CLSI method relative to control; type: functional
[20] = test system: Staphylococcus aureus; assay: Potentiation of oxacillin-mediated antibacterial activity against methicillin-resistant Staphylococcus aureus R313 clinical isolate assessed as decrease in oxacillin MIC at 32 ug/ml after 20 to 24 hrs by CLSI method relative to control; type: functional

CCCCCCCCCCCCOCc1cn([C@@H]2O[C@H](CO)[C@@H](O)[C@H](O)[C@H]2O)nn1
fold change (FC) [1]: <=256
fold change (FC) [2]: <=256
fold change (FC) [3]: <=256
fold change (FC) [4]: <=256
fold change (FC) [5]: <=256
fold change (FC) [6]: <=256
fold change (FC) [7]: <=256
fold change (FC) [8]: <=256
Activity [9]: Active
Drug uptake [10]: Active
MIC [11]: 64 µg/mL
MIC [12]: 64 µg/mL
MIC [13]: 128 µg/mL
MIC [14]: 256 µg/mL
MIC [15]: 16 µg/mL
MIC [16]: 8 µg/mL
MIC [17]: 8 µg/mL
MIC [18]: 8 µg/mL
MIC [19]: 2 µg/mL
MIC [20]: 1 µg/mL
